Measurements as given in ChEMBL document CHEMBL5674860, “Optimized Dual-Glo Assay to identify co-culture-induced drug vulnerabilities in 3D CRC models” (2024).

How the values were obtained:
Format in all cases: functional, Homo sapiens
Design in all cases: dose or concentration left out as unconfirmed
[1] = system: Colon cancer organoid; assay: Optimized Dual-Glo assay to identify co-culture induced drug vulnerabilities using donated chemical probes and chemogenomics kinase set in O14 CRC organoid and F14 CAF mono and co-culture. […] Cell viability is reported both mono and co-culture models.
[2] = system: Colon cancer organoid; assay: Optimized Dual-Glo assay to identify co-culture induced drug vulnerabilities using donated chemical probes and chemogenomics kinase set in O20 CRC organoid and F20 CAF mono and co-culture. […] Cell viability is reported both mono and co-culture models.
[3] = system: Colon cancer organoid; assay: Optimized Dual-Glo assay to identify co-culture induced drug vulnerabilities using donated chemical probes and chemogenomics kinase set in O06 CRC organoid and F06 CAF mono and co-culture. […] Cell viability is reported both mono and co-culture models.
[4] = Culture type Co-Culture, Transduced with Lucferase2-P2A-EGFP lentivirus
[5] = Culture type Co-Culture, Transduced with Renilla-dsRed lentivirus
[6] = Culture type Mono-Culture, Transduced with Lucferase2-P2A-EGFP lentivirus
[7] = Culture type Mono-Culture, Transduced with Renilla-dsRed lentivirus

CN(C)C(=O)c1ccc(-c2cc(C(=O)N[C@@H]3CCc4ccccc43)no2)cc1O
Cell Viability [1, 4]: 73.2649% | Cell Viability [1, 5]: 147.75% | Cell Viability [1, 6]: 80.1245% | Cell Viability [1, 7]: 134.73% | Cell Viability [2, 4]: 98.4389% | Cell Viability [2, 5]: 104.475% | Cell Viability [2, 6]: 121.813% | Cell Viability [2, 7]: 120.44% | Cell Viability [3, 4]: 113.879% | Cell Viability [3, 5]: 93.2478% | Cell Viability [3, 6]: 92.6679% | Cell Viability [3, 7]: 134.315%

C=CC(=O)Nc1ccc2[nH]c(=O)n(C3CCN(C(=O)c4ccc(-c5nc6cc[nH]c(=O)c6cc5-c5ccccc5)cc4)CC3)c2c1
Cell Viability [1, 4]: 111.176% | Cell Viability [1, 5]: 112.94% | Cell Viability [1, 6]: 102.423% | Cell Viability [1, 7]: 83.7994% | Cell Viability [2, 4]: 101.159% | Cell Viability [2, 5]: 80.5582% | Cell Viability [2, 6]: 103.07% | Cell Viability [2, 7]: 78.5683% | Cell Viability [3, 4]: 100.634% | Cell Viability [3, 5]: 129.997% | Cell Viability [3, 6]: 117.336% | Cell Viability [3, 7]: 96.7859%

COc1cc(C)c(Sc2cnc(NC(=O)c3ccc(CNC(C)C(C)(C)C)cc3)s2)cc1C(=O)N1CCN(C(C)=O)CC1 (stereo unspecified)
Cell Viability [1, 4]: 66.3781% | Cell Viability [1, 5]: 81.9892% | Cell Viability [1, 6]: 56.9877% | Cell Viability [1, 7]: 80.9779% | Cell Viability [2, 4]: 92.0383% | Cell Viability [2, 5]: 97.5626% | Cell Viability [2, 6]: 38.3034% | Cell Viability [2, 7]: 78.8109% | Cell Viability [3, 4]: 97.8632% | Cell Viability [3, 5]: 73.4932% | Cell Viability [3, 6]: 75.5351% | Cell Viability [3, 7]: 54.8582%

C[C@H]1CCCN1Cc1nc2cc(NC(=O)c3ccc4cnccc4c3)ccc2[nH]1
Cell Viability [1, 4]: 60.7566% | Cell Viability [1, 5]: 146.013% | Cell Viability [1, 6]: 100.332% | Cell Viability [1, 7]: 105.964% | Cell Viability [2, 4]: 98.572% | Cell Viability [2, 5]: 149.477% | Cell Viability [2, 6]: 83.1729% | Cell Viability [2, 7]: 94.0651% | Cell Viability [3, 4]: 122.515% | Cell Viability [3, 5]: 131.721% | Cell Viability [3, 6]: 188.522% | Cell Viability [3, 7]: 107.295%

Cc1cccc(-c2cnc3occ(-c4ccc(C(=O)O)c(C5CCCC5)c4)c3c2)c1
Cell Viability [1, 4]: 114.736% | Cell Viability [1, 5]: 94.3308% | Cell Viability [1, 6]: 126.625% | Cell Viability [1, 7]: 90.9911% | Cell Viability [2, 4]: 88.6258% | Cell Viability [2, 5]: 133.429% | Cell Viability [2, 6]: 94.6873% | Cell Viability [2, 7]: 103.401% | Cell Viability [3, 4]: 95.2844% | Cell Viability [3, 5]: 61.5637% | Cell Viability [3, 6]: 124.633% | Cell Viability [3, 7]: 116.796%

CN(C)C(=O)Cn1cc(-c2nc(C3(c4ccc(-c5cnc(N)nc5)cc4)CC3)no2)cn1 [BI 0153]
Cell Viability [1, 4]: 85.1631% | Cell Viability [1, 5]: 102.426% | Cell Viability [1, 6]: 124.477% | Cell Viability [1, 7]: 95.7431% | Cell Viability [2, 4]: 119.435% | Cell Viability [2, 5]: 91.9766% | Cell Viability [2, 6]: 120.102% | Cell Viability [2, 7]: 113.624% | Cell Viability [3, 4]: 114.895% | Cell Viability [3, 5]: 116.335% | Cell Viability [3, 6]: 110.704% | Cell Viability [3, 7]: 85.1331%

N#CN1CC[C@@H](C(=O)Nc2nc3c(s2)CN(C(=O)CN=[N+]=[N-])CC3)C1 [JYQ88]
Cell Viability [1, 4]: 85.6014% | Cell Viability [1, 5]: 100.681% | Cell Viability [1, 6]: 114.259% | Cell Viability [1, 7]: 88.3695% | Cell Viability [2, 4]: 63.8809% | Cell Viability [2, 5]: 84.2967% | Cell Viability [2, 6]: 72.0417% | Cell Viability [2, 7]: 77.9243% | Cell Viability [3, 4]: 72.1963% | Cell Viability [3, 5]: 58.5555% | Cell Viability [3, 6]: 71.7367% | Cell Viability [3, 7]: 79.6546%

O=C1[C@H](Cc2ccc(O)cc2)N2C(=O)CCN(C(=O)NCc3ccccc3)[C@H]2CN1Cc1cccc2ccccc12
Cell Viability [1, 4]: 20.45% | Cell Viability [1, 5]: 145.967% | Cell Viability [1, 6]: 17.2238% | Cell Viability [1, 7]: 77.2237% | Cell Viability [2, 4]: 89.6614% | Cell Viability [2, 5]: 144.616% | Cell Viability [2, 6]: 131.376% | Cell Viability [2, 7]: 33.7268% | Cell Viability [3, 4]: 79.2211% | Cell Viability [3, 5]: 124.216% | Cell Viability [3, 6]: 100.059% | Cell Viability [3, 7]: 61.7438%

CCOc1cc(N2CCC(O)CC2)ccc1Nc1ncc2c(n1)N(C)c1ccccc1C(=O)N2C
Cell Viability [1, 4]: 76.0009% | Cell Viability [1, 5]: 186.577% | Cell Viability [1, 6]: 84.1713% | Cell Viability [1, 7]: 122.992% | Cell Viability [2, 4]: 81.7751% | Cell Viability [2, 5]: 117.331% | Cell Viability [2, 6]: 65.2469% | Cell Viability [2, 7]: 115.42% | Cell Viability [3, 4]: 85.6087% | Cell Viability [3, 5]: 128.987% | Cell Viability [3, 6]: 73.5863% | Cell Viability [3, 7]: 165.88%

CN(C)[C@H]1CCN(c2cc(-c3ccccc3)nc3ccnn23)C1 [(S)-ZINC-3573]
Cell Viability [1, 4]: 106.455% | Cell Viability [1, 5]: 83.2705% | Cell Viability [1, 6]: 93.2108% | Cell Viability [1, 7]: 87.5469% | Cell Viability [2, 4]: 92.3796% | Cell Viability [2, 5]: 112.128% | Cell Viability [2, 6]: 114.664% | Cell Viability [2, 7]: 102.75% | Cell Viability [3, 4]: 87.7689% | Cell Viability [3, 5]: 121.05% | Cell Viability [3, 6]: 76.4871% | Cell Viability [3, 7]: 118.538%

CC1=C(C#N)C(c2ccc3[nH]nc(C)c3c2)C(C#N)=C(C)N1 [BAY-474]
Cell Viability [1, 4]: 198.7% | Cell Viability [1, 5]: 101.908% | Cell Viability [1, 6]: 71.8172% | Cell Viability [1, 7]: 85.997% | Cell Viability [2, 4]: 81.7867% | Cell Viability [2, 5]: 102.241% | Cell Viability [2, 6]: 98.8764% | Cell Viability [2, 7]: 79.7467% | Cell Viability [3, 4]: 148.587% | Cell Viability [3, 5]: 192.268% | Cell Viability [3, 6]: 98.9453% | Cell Viability [3, 7]: 96.2381%

CCS(=O)(=O)Nc1ccc(Oc2ccc(F)cc2F)c(-c2cn(C)c(=O)c3[nH]ccc23)c1 [MIVEBRESIB]
Cell Viability [1, 4]: 11.3223% | Cell Viability [1, 5]: 338.596% | Cell Viability [1, 6]: 8.201% | Cell Viability [1, 7]: 180.439% | Cell Viability [2, 4]: 5.728% | Cell Viability [2, 5]: 64.2458% | Cell Viability [2, 6]: 7.404% | Cell Viability [2, 7]: 12.1973% | Cell Viability [3, 4]: 13.1828% | Cell Viability [3, 5]: 272.686% | Cell Viability [3, 6]: 12.7607% | Cell Viability [3, 7]: 153.585%

CN([C@@H]1CCc2c(CC(=O)O)c3cc(S(C)(=O)=O)ccc3n2C1)S(=O)(=O)c1ccc(F)cc1 [CRTH2-negative-control]
Cell Viability [1, 4]: 89.9276% | Cell Viability [1, 5]: 115.062% | Cell Viability [1, 6]: 117.685% | Cell Viability [1, 7]: 97.6178% | Cell Viability [2, 4]: 107.561% | Cell Viability [2, 5]: 126.69% | Cell Viability [2, 6]: 138.147% | Cell Viability [2, 7]: 108.987% | Cell Viability [3, 4]: 107.688% | Cell Viability [3, 5]: 114.368% | Cell Viability [3, 6]: 103.342% | Cell Viability [3, 7]: 104.475%
